Experimental data as given in ChEMBL document CHEMBL1136578, “Synthesis of non-natural C2-homo-ceramide and its apoptotic activity against HL-60 cells” (2003).

What follows are compounds tested on HL-60 (assay: Apoptotic activity against HL-60 (Human leukemia) cell after 6 hr of stimulation measured by MTT assay).
Type: functional
CCCCCCCCCCCCC/C=C/[C@@H](O)[C@H](CCO)NC(C)=O was tested, and the Apoptosis was 48%. CCCCCCCCCCCCCCC[C@@H](O)[C@H](CCO)NC(C)=O was tested, and the Apoptosis was 21%. CCCCCCCCCCCCC/C=C/[C@@H](O)[C@H](CO)NC(C)=O (stereo in doubt; form 1) showed an Apoptosis of 62%. Compound CCCCCCCCCCCCC/C=C/[C@@H](O)[C@H](CCCO)NC(C)=O has an Apoptosis of 52%. For CCCCCCCCCCCCCCC[C@@H](O)[C@H](CCCO)NC(C)=O, the Apoptosis was 20%.
